pIC50: −log10 of the molar value.
Target: T1, CDK5-p25 kinase (Homo sapiens, UniProt Q00535)
T1 construct: purchased Invitrogen PV4677
Assay: CDK5-p25 kinase enzymatic assay
Assay type: biochemical
Details: 50 nM-99 nM; 5 uM ATP, 0.3 nM CDK5-p25; read-out: IC50 potency, CDK5-p25 kinase enzymatic assay, 50 nM-99 nM
Description: CDK5-p25 kinase (Invitrogen PV4677) enzymatic activity was measured using electrophoretic separation and fluorescent detection to monitor phosphorylation of a fluorescently labeled histone H1-derived peptide substrate, FL29 (5-FAM-GGGPATPKKAKKL-CONH2, Caliper #760429)
First, 0.25 uL of serially diluted compound in DMSO at 100× concentration was transferred into each well of a 384-well polystyrene assay plate. To this was added 15 uL of a 1.67× enzyme solution (500 pM enzyme, 1 mM DTT (Sigma D9779), 1× reconstitution buffer with protease inhibitor (Caliper #700329 proprietary formulation)), followed by centrifugation for 1 min at 1000 rpm, and incubation for 5-15 min at room temperature to allow binding of compound to enzyme. To initiate the reaction, 10 uL of substrate/ATP mix (245 mM Hepes pH 7.5, 0.003% Brij 35, 0.004% Tween, 12.75 uM ATP, 3.75 uM FL29 peptide) were added to each well, followed by centrifugation at 1000 rpm for 1 min. The reaction was then incubated at room temperature for 30 min. Final assay conditions were: 0.3 nM CDK5-p25, 1.5 uM peptide, 5 uM ATP, 0.6 mM DTT, 1% DMSO, 98 mM HEPES pH 7.5.
After incubation, reactions were quenched by the addition of 45 uL Caliper termination solution (Caliper proprietary formula), followed by centrifugation at 1000 rpm for 1 min. Extent of reaction (percentage conversion of substrate to phosphorylated product) was then measured using the Caliper EZ II reader. Dose-response curves were created by plotting the inhibition of enzyme activity (normalized relative to vehicle treated and no ATP control reactions) as a function of the log of compound concentration. The curve was analyzed using a four parameter logistical fit to calculate IC50 values.

T1 sequence (Q00535 whole entry): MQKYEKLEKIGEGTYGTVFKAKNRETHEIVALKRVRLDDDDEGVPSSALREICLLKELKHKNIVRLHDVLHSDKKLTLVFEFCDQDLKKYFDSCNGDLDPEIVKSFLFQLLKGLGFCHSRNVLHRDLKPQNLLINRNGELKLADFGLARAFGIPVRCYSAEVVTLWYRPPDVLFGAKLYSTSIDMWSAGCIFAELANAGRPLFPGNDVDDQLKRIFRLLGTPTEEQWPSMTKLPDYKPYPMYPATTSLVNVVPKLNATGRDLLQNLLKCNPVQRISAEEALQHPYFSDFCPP
T1 sequence (Q15078 99-307 partner limits assumed): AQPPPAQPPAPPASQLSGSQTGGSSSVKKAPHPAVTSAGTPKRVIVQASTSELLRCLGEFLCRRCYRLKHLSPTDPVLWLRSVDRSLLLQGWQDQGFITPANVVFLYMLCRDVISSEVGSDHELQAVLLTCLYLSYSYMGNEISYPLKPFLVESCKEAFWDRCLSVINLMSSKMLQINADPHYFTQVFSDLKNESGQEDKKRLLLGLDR

| pIC50 | SMILES |
| --- | --- |
| 7.00 to 7.30 | Nc1cc(Nc2cccc(CC(=O)Nc3ncn4c(C(F)(F)F)csc34)c2)ccn1 [Example 49, 2-{3-[(2-aminopyridin-4-yl)amino]phenyl}-N-[3-(trifluoromethyl)imidazo[5,1-b][1,3]thiazol-7-yl]acetamide] |
| 7.00 to 7.30 | O=C(Cc1ccc(-n2ccnc2)cc1)Nc1ncn2c(C(F)(F)F)csc12 [Example 23, 2-[4-(1H-imidazol-1-yl)phenyl]-N-[3-(trifluoromethyl)imidazo[5,1-b][1,3]thiazol-7-yl]acetamide] |
| 7.00 to 7.30 | O=C(Cc1cccc(NC(=O)c2ccncc2)c1)Nc1ncn2c(C(F)(F)F)csc12 [Example 60, N-[3-(2-oxo-2-{[3-(trifluoromethyl)imidazo[5,1-b][1,3]thiazol-7-yl]amino}ethyl)phenyl] isonicotinamide] |
| 7.00 to 7.30 | NCc1ccc(CC(=O)Nc2ncn3c(C(F)(F)F)csc23)cc1 [Example 27, 2-[4-(aminomethyl)phenyl]-N-[3-(trifluoromethyl)imidazo[5,1-b][1,3]thiazol-7-yl]acetamide] |
| 7.00 to 7.30 | Nc1ncc(-c2ccc(CC(=O)Nc3ncn4c(C(F)(F)F)csc34)cc2)cn1 [Example 35, 2-[4-(2-aminopyrimidin-5-yl)phenyl]-N-[3-(trifluoromethyl)imidazo[5,1-b][1,3]thiazol-7-yl]acetamide] |
| 7.00 to 7.30 | CC(C(=O)Nc1ncn2c(C(F)(F)F)csc12)c1ccc2ncccc2c1 (stereo not shown) [Example 39, 2-quinolin-6-yl-N-[3-(trifluoromethyl)imidazo[5,1-b][1,3]thiazol-7-yl]propanamide] |
| 7.00 to 7.30 | O=C(Cc1cccc(NC(=O)c2cccnc2)c1)Nc1ncn2c(C(F)(F)F)csc12 [Example 59, N-[3-(2-oxo-2-{[3-(trifluoromethyl)imidazo[5,1-b][1,3]thiazol-7-yl]amino}ethyl)phenyl] nicotinamide] |

Same assay, conditions: 5 uM ATP, 0.3 nM CDK5-p25; read-out: IC50 potency, CDK5-p25 kinase enzymatic assay, 100 nM-499 nM

| pIC50 | SMILES |
| --- | --- |
| 6.30 to 7.00 | COc1cccc(-c2ccc(CC(=O)Nc3ncn4c(C(F)(F)F)csc34)cc2)c1 [Example 10, 2-(3′-methoxybiphenyl-4-yl)-N-[3-(trifluoromethyl)imidazo[5,1-b][1,3]thiazol-7-yl]acetamide] |
| 6.30 to 7.00 | O=C(Nc1ncn2c(C(F)(F)F)csc12)C(O)c1ccc2ccccc2c1 (stereo not shown) [Example 40, 2-hydroxy-2-(2-naphthyl)-N-[3-(trifluoromethyl)imidazo[5,1-b][1,3]thiazol-7-yl]acetamide] |

Same assay, conditions: '<50 nM'; 5 uM ATP, 0.3 nM CDK5-p25; read-out: IC50 potency, CDK5-p25 kinase enzymatic assay, <50 nM

| pIC50 | SMILES |
| --- | --- |
| > 7.30 | O=C(Cc1ccc2[nH]cnc2c1)Nc1ncn2c(C(F)(F)F)csc12 [Example 73, 2-(1H-benzimidazol-5-yl)-N-[3-(trifluoromethyl)imidazo[5,1-b][1,3]thiazol-7-yl]acetamide] |
| > 7.30 | O=C(Cc1ccc(NC(=O)c2ccccc2)cc1)Nc1ncn2c(C(F)(F)F)csc12 [Example 79, N-[4-(2-oxo-2-{[3-(trifluoromethyl)imidazo[5,1-b][1,3]thiazol-7-yl)amino}ethyl)phenyl] benzamide] |
| > 7.30 | C[C@H](C(=O)Nc1ncn2c(C(F)(F)F)csc12)c1ccc2ncccc2c1 [Example 46, (2S)-2-quinolin-6-yl-N-[3-(trifluoromethyl)imidazo[5,1-b][1,3]thiazol-7-yl]propanamide] |
| > 7.30 | Cc1ccc(-c2ccc(CC(=O)Nc3ncn4c(C(F)(F)F)csc34)cc2)cn1 [Example 55, 2-[4-(6-methylpyridin-3-yl)phenyl]-N-[3-(trifluoromethyl)imidazo[5,1-b][1,3]thiazol-7-yl]acetamide] |
| > 7.30 | O=C(Cc1ccc2cccnc2c1)Nc1ncn2c(C(F)(F)F)csc12 [Example 13, 2-quinolin-7-yl-N-(3-(trifluoromethyl)imidazo[5,1-b][1,3]thiazol-7-yl]acetamide] |
| > 7.30 | O=C(Cc1cccc(-c2ccccn2)c1)Nc1ncn2c(C(F)(F)F)csc12 [Example 56, 2-(3-pyridin-2-ylphenyl)-N-[3-(trifluoromethyl)imidazo[5,1-b][1,3]thiazol-7-yl]acetamide] |
| > 7.30 | COc1ccc2cc(CC(=O)Nc3ncn4c(C(F)(F)F)csc34)ccc2c1 [Example 6, 2-(6-methoxy-2-naphthyl)-N-[3-(trifluoromethyl)imidazo[5,1-b][1,3]thiazol-7-yl]acetamide] |

From patent publication US20130225591A1, “IMIDOTHIAZOLE KINASE INHIBITORS” (priority 2009, published 2013)
